The values that follow are results of earlier work, collected in US10421710B2, “Substituted phenethylamines with serotoninergic and/or norepinephrinergic activity” (Auspex Pharmaceuticals, Inc., priority 2007, dated 2019).

Where “and” joins values, the source holds several entries; their conditions need not be identical. Equal entries are not always repeated.

For this data set the following is noted: in humans (b8); species not repeated.

For `COc1ccc(C(CN(C)C)C2(O)CCCCC2)cc1` (racemic) [venlafaxine, 1-[2-dimethylamino-1-(4-methoxy-phenyl)-ethyl]-cyclohexanol], the “half-life (T1/2)” value is ~5 h and 3 to 7 h. For the compound `CN(C)CC(c1ccc(O)cc1)C1(O)CCCCC1` (centres unmarked) [ODV, 0-desmethylvenlafaxine], the “half-life (T1/2)” value was ~11 h and 11 h.
